From patent publication US20080255134A1 (Artesian Therapeutics, Inc., priority 2004, published 2008)
pIC50: −log10 of the molar value. Where two headings read alike, the source gives them in different places.

Experiments:
β1-adrenergic receptor = biological target: T1, β1-adrenergic receptor (Rattus norvegicus, UniProt P18090); experiment: β1-adrenergic radioligand binding assay using rat cortical membranes; conditions: at 1000 nM concentration, read-out: β1-adrenergic percent inhibition
T1 construct: from tissue; host or cells: rat cortical membranes
T1 sequence (P18090 whole entry): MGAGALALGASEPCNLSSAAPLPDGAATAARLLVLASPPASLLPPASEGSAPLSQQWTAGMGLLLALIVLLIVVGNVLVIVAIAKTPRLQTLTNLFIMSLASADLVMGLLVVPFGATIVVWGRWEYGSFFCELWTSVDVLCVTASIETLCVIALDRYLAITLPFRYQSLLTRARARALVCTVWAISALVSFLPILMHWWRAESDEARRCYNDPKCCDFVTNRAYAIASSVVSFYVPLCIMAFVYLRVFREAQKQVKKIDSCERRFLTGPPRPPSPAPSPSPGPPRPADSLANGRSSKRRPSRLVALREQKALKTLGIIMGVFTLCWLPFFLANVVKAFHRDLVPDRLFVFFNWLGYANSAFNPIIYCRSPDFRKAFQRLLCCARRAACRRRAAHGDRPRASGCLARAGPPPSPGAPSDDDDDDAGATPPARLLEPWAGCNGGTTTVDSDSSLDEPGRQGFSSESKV
Protocol: (§1) Non-selective β-adrenergic and β1-adrenergic radioligand binding assays were performed using rat cortical membranes; β2-adrenergic receptor assays were performed using membranes isolated from CHO cells expressing human, recombinant b2-adrenergic receptor; non-selective α1-adrenergic receptor assays were performed using rat forebrain membranes; and PDE3 binding assays were performed on human platelets. Values in percent illustrate percent inhibition at 1000 nM concentration.

[1] = test system: White New Zealand male rabbits; experiment: In vivo β-adrenergic blockade, isoproterenol challenge (Protocol 1); parameters: species or system rabbit; conditions: for decrease of left ventricular contractility (% of isoproterenol effect): doses that completely diminished isoproterenol-dependent increase in heart rate: atenolol 1 mg/kg, carvedilol 0.3 mg/kg, Compound 8c 1 mg/kg, mean±SEM
Protocol: (§2) Studies were performed on White New Zealand male rabbits (2-3 kg weight). Animals were initially anesthetized with ketamine (50 mg/kg; IM) and xylazine (6 mg/kg, IM). Subsequently, animals were intubated (via tracheotomy; 3 mm tube) and ventilated with 2% isoflurane (mixed in 95% O2+5% CO2). Each rabbit was instrumented for LV pressure (3F Millar catheter) through right carotid artery, arterial pressure (3F catheter, Cook Instruments) through left femoral artery, which was connected to a fluid-filled pressure transducer (BD Instruments), and ECG. Both pressure transducers were zeroed against atmospheric pressure, and calibrated before each study using an analog manometer. Upon completion of instrumentation, isoflurane was reduced to 1.25%, and the animal was covered for maintenance of body core temperature. Arterial and LV blood pressures (LVP) and the ECG signals were simultaneously digitally recorded on a PC. The recording system (Gould Instruments) and the corresponding software (Ponema, Gould Instruments) facilitated detailed calculation of various parameters directly from all signals and record on a separate file with a 1 sec resolution. Upon completion of the study protocol, rabbits were euthenized by isoflurane overdose (5% for at least 1 minute) and cardiac arrest through IV infusion of 5 ml 3 molar potassium chloride.
(§3) Once the physiological variables were stable, effects of each drug on hemodynamics and ECG were determined based on two different protocols: 1) infusion of a compound of the present invention to determine the effects of the compound itself mainly on contractility, and other hemodynamic indices; and 2) infusion of a compound of the present invention while the system was challenged with 0.5 ug/kg isoproterenol to determine the beta-adrenergic antagonism properties of each tested compound.
(§4) White New Zealand male rabbits (2-3 kg) were anesthetized and ventilated (95% O2+5% CO2) with 1.25% isoflurane. Each animal was instrumented for LV pressure (Millar, through left carotid artery), arterial pressure (left femoral artery), infusion (jugular vein), and electrocardiogram. The animals were administered intravenously based on one of these protocols:
Protocol 1: β-adrenergic blockade (isoproterenol challenge).

[2] = test system: White New Zealand male rabbits; experiment: In vivo hemodynamic effects of compounds administered alone (Protocol 2); parameters: species or system rabbit; conditions: for mean arterial pressure: doses that completely diminished isoproterenol-dependent increase in heart rate, Protocol 2, FIG. 15; for left ventricular contractility when administered alone: protocol 2, relative to control, FIGS. 2, 12
Protocol: as §2, §3, §4
Protocol 2: PDE3 inhibition (effects of compounds when administered alone).

α1-adrenergic receptor = experiment: Non-selective α1-adrenergic receptor assay using rat forebrain membranes; format: binding
Protocol: as §1, with “The ability of Compounds 25 and 8c to inhibit PDE3 and β-adrenergic receptor activity was examined both in vitro and in vivo. […] Non-selective” for “Non-selective”

[3] = test system: naive anesthetized canines; experiment: Contractility in naive anesthetized canines (protocol 2); format: in vivo, canine; conditions: administered alone (protocol 2), FIG. 17
[4] = biological target: T2, human recombinant beta-1 receptors (Homo sapiens, UniProt P08588); experiment: β1-receptor radioligand binding, [125I] iodocyanopindolol, CHO-REX16 cells; conditions: at 100 nM
T2 construct: expressed in transfected cells; host or cells: CHO-REX16 cells
T2 sequence (P08588 whole entry): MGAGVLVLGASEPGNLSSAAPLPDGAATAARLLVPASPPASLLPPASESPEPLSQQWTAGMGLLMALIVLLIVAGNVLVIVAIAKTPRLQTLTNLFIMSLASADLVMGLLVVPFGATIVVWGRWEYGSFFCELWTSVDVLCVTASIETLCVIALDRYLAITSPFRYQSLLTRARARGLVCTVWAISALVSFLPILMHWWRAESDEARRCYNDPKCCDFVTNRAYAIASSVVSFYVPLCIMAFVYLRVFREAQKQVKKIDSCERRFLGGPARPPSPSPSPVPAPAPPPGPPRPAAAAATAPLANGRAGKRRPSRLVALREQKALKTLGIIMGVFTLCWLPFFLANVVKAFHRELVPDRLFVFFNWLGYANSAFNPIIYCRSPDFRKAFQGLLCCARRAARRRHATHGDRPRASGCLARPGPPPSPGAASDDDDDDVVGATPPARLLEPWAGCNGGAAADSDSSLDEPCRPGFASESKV
Protocol: […] receptor binding was measured in human recombinant beta-1 receptors expressed in CHO-REX16 cells, using [^125I] (-) iodocyanopindolol (2000 Ci/mmol) as the radioligand, as described in Kalaria et al., J. Neurochem. 53: 1772-81 (1998), and Minneman et al., Mol. Pharmacol. 16: 34-46 (1979).

PDE3 = biological target: T3, PDE3 (Homo sapiens, UniProt Q14432); experiment: In vitro assay for cAMP PDE-3 inhibitory activity; format: biochemical; conditions: human platelet cyclic AMP phosphodiesterase, bound stated
T3 construct: from tissue; host or cells: human platelets
T3 sequence (Q14432 whole entry): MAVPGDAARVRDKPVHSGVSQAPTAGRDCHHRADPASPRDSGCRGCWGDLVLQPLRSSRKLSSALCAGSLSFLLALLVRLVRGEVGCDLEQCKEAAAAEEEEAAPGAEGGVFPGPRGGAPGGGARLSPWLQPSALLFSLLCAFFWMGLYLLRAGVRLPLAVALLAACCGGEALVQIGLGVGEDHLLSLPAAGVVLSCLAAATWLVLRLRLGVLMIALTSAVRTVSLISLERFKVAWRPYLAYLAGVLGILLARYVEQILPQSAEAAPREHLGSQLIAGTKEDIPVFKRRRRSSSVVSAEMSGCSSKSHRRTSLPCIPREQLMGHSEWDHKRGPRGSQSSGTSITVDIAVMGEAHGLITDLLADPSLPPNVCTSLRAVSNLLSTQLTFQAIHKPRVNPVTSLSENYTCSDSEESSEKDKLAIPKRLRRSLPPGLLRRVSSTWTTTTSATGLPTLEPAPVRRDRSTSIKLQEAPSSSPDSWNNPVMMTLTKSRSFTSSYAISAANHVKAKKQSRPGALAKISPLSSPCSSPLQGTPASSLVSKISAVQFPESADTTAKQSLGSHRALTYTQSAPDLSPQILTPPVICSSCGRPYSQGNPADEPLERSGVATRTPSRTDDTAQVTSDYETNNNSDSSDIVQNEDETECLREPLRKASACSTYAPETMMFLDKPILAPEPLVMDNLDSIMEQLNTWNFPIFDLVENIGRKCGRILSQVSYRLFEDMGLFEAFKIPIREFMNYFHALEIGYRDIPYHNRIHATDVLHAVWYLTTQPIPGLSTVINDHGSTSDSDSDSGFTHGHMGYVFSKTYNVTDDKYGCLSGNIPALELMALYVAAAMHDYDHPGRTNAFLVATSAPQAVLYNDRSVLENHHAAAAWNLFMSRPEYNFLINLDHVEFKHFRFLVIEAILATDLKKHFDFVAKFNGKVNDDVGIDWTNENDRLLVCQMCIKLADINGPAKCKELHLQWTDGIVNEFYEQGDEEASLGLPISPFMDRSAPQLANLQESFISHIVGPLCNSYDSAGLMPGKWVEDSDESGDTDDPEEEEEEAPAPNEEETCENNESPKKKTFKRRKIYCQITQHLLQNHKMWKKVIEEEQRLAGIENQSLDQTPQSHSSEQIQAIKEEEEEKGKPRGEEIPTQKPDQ
Protocol: Human platelet cyclic AMP phosphodiesterase was prepared according to the method of Alvarez et al., Mol. Pharmacol. 29: 554 (1986). The PDE incubation medium contained 10 mM Tris-HCl buffer, pH 7.7, 10 mM MgSO4, and 1 μM […] (0.2 μCi) in a total volume of 1.0 mL. Test compounds were dissolved in DMSO immediately prior to addition to the incubation medium, and the resulting mixture was allowed to stand for 10 minutes prior to the addition of enzyme. Following the addition of PDE, the contents were mixed and incubated for 10 minutes at 30° C. Three assays each were performed for each of five test compound concentrations, the mean of the determinations (n=3) at each concentration was plotted, and IC50 values were determined graphically.
as §1, with “The ability of Compounds 25 and 8c to inhibit PDE3 and β-adrenergic receptor activity was examined both in vitro and in vivo. […] Non-selective” for “Non-selective”

[5] = biological target: T4, human recombinant beta-2 receptors (Homo sapiens, UniProt P07550); experiment: β2-receptor radioligand binding, [125I] iodocyanopindolol, CHO-WT21 cells; conditions: at 100 nM
T4 construct: expressed in transfected cells; host or cells: CHO-WT21 cells
T4 sequence (P07550 whole entry): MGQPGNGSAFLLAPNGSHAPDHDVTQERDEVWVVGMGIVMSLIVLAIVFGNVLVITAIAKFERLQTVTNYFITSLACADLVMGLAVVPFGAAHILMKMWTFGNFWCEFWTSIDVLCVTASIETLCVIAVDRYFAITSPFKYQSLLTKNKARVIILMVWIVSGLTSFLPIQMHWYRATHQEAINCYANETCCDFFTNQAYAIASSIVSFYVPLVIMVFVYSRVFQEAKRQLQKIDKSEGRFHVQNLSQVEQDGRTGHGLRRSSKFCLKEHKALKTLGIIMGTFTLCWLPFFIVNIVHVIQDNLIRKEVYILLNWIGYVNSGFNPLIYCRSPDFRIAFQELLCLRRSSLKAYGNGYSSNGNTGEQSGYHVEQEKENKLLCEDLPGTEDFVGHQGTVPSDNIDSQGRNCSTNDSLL
Protocol: as §1

[6] = read-out: PDE IC50 inhibition values

SMILES | inhibition at 0.1 µM [4] | pIC50 (PDE3; read-out: PDE3 inhibition IC50) | inhibition at 0.1 µM [5] | pIC50 (PDE3; [6]) | also measured
CC(C)NCC(O)COc1ccc(CC(N)=O)cc1 (centres unmarked) [Atenolol, reference compound] |  |  |  |  | inhibition at 1 µM (β1-adrenergic receptor): 23%; decrease of left ventricular contractility (% of isoproterenol effect) [1]: 82±2%; mean arterial pressure [2]: decreased mean arterial pressure; left ventricular contractility when administered alone [2]: decreased contractility; α1-adrenergic IC50, nM (α1-adrenergic receptor): inactive
COc1ccccc1OCCNCC(O)COc1cccc2[nH]c3ccccc3c12 (centres unmarked) [Carvedilol, reference compound] |  |  |  |  | contractility (LV+dP/dtmax) at ED50 ([1]; Compound 25 0.3 mg/kg, carvedilol 0.1 mg/kg, Protocol 1, FIG. 13): decreased this parameter; ED50 ([1]; Oryctolagus cuniculus, isoproterenol challenge (0.5 μg/kg), intravenous, read-out: ED50, dose that diminished isoproterenol-dependent increase in HR by 50%): 0.1 mg/kg; relaxation properties (Tau) at ED50 ([1]; compared to control, Protocol 1, FIG. 13): negative lusitropic effect; decrease of left ventricular contractility (% of isoproterenol effect) [1]: 82±7%; mean arterial pressure [2]: decreased mean arterial pressure; left ventricular contractility when administered alone [2]: decreased contractility; contractility in naive anesthetized canines [3]: decreased this parameter at the higher doses; pIC50 (α1-adrenergic receptor): […]
COCCc1ccc(OC[C@@H](O)CNCCCCOc2ccc(C3=NNC(=O)CC3)cc2Cl)cc1 [Compound 44] | > 25% | > 6.00 |  |  | 
COCCc1ccc(OC[C@@H](O)CNCCOc2ccc(C3=NNC(=O)CC3)cc2Cl)cc1 [Compound 41, 6-[3-Chloro-4-(3-{(S)-2-hydroxy-propylamino]-ethoxy}-phenyl)-4,5-dihydro-2H-pyridazin-3-one] | > 25% | > 6.00 |  | > 7.00 | 
CC(C)(CNC(=O)COc1ccc(C2=NNC(=O)CC2)cc1Cl)NCC(O)COc1cccc2[nH]c3ccccc3c12 (centres unmarked) [Compound 49, N-{2-[3-(9H-carbazol-4-yloxy)-2-hydroxy-propylamino]-2-methyl-propyl}-2-[2-chloro-4-(6-oxo-1,4,5,6-tetrahydro-pyridazin-3-yl)-phenoxy]-acetamide] | > 25% | > 6.00 | > 25% | > 7.00 | 
O=C1CCC(c2ccc(OCC(=O)N3CCC(NC[C@H](O)COc4cccc5[nH]c6ccccc6c45)CC3)c(Cl)c2)=NN1 [Compound 17, 6-[4-(2-{4-[(S)-3-(9H-Carbazol-4-yloxy)-2-hydroxy-propylamino]-piperidin-1-yl}-2-oxo-ethoxy)-3-chloro-phenyl]-4,5-dihydro-2H-pyridazin-3-one] |  | > 6.00 |  |  | 
O=C1CCC(c2ccc(OCCNCC(O)COc3ccc4c(c3)[nH]c3ccccc34)c(Cl)c2)=NN1 (centres unmarked) [Compound 34, 6-(4-{2-[3-(9H-carbazol-2-yloxy)-2-hydroxy-propylamino]-ethoxy}-3-chloro-phenyl)-4,5-dihydro-2H-pyridazin-3-one] |  | > 6.00 |  |  | 

Second part, led by results:

inhibition at 0.1 µM [4] | pIC50 (PDE3; read-out: PDE3 inhibition IC50) | inhibition at 0.1 µM [5] | pIC50 (PDE3; [6]) | SMILES | also measured
> 25% | > 6.00 | > 25% | > 7.00 | O=C1CCC(c2ccc(OCC(=O)N3CCC(NC[C@H](O)COc4ccccc4Br)CC3)c(Cl)c2)=NN1 [Compound 8d, 6-[4-(2-{4-[3-(2-bromo-phenoxy)-2-hydroxy-propylamino]-piperidin-1-yl}-2-oxo-ethoxy)-3-chloro-phenyl]-4,5-dihydro-2H-pyridazin-3-one] | 
> 25% | > 6.00 | > 25% | > 7.00 | O=C1CCC(c2ccc(OCC(=O)N3CCC(NC[C@H](O)COc4ccccc4C(F)(F)F)CC3)c(Cl)c2)=NN1 [Compound 8g, 6-[3-chloro-4-(2-{4-[2-hydroxy-3-(2-trifluoromethyl-phenoxy)-propylamino]-piperidin-1-yl}-2-oxo-ethoxy)-phenyl]-4,5-dihydro-2H-pyridazin-3-one] | 
 | > 6.00 |  |  | COCCc1ccc(OC[C@@H](O)CNC2CCN(C(=O)COc3ccc(C4=NNC(=O)CC4)cc3Cl)CC2)cc1 [Compound 8r, 6-{3-chloro-4-[2-(4-{2-hydroxy-3-[4-(2-methoxy-ethyl)-phenoxy]-propylamino}-piperidin-1-yl)-2-oxo-ethoxy]-phenyl}-4,5-dihydro-2H-pyridazin-3-one] | 
 | > 6.00 | > 25% |  | Cc1ccc(OC[C@@H](O)CNC2CCN(C(=O)COc3ccc(C4=NNC(=O)CC4)cc3Cl)CC2)cc1 [Compound 8p, 6-(3-chloro-4-{2-[4-(2-hydroxy-3-p-tolyloxy-propylamino)-piperidin-1-yl]-2-oxo-ethoxy}-phenyl)-4,5-dihydro-2H-pyridazin-3-one] | 
